Test results from paper PMC9589981, “High-Resolution Epitope Mapping and Affinity Binding Analysis Comparing a New Anti-Human LAG3 Rabbit Antibody Clone to the Commonly Used Mouse 17B4 Clone” (Antibodies, 2022).

Test system: mouse 17B4 antibody (binding to LAG3 from HH cell lysate)
Test: ACE (automated capillary electrophoresis) peptide inhibition assay, 17B4
Conditions: result in words, peptide at 5000 nM and 500 nM
Description: For each assay run, HH cell lysate was mixed with 0.1× WES sample buffer reagent, and reconstituted WES 5× Fluorescent Mix reagent followed by denaturation at 95 °C for 3 min and then held on ice followed until use. Denatured sample was added to each of the designated wells of the separation module sampling plate. Dilutions of the stock rabbit SP464 and mouse 17B4 monoclonal antibodies were made to the desired concentrations using the WES detection module Antibody Dilution Buffer 2 reagent. Diluted antibody solutions were added to the designated wells of the separation module sampling plate. The remaining WES assay reagents were finally added to the plate and then processed in the WES instrument using the default running and detection parameters.
HH cell lysate samples were prepared and used as above for antibody titration assays. Rabbit SP464 and mouse 17B4 antibodies were diluted to 4 µg/mL in the WES detection module Antibody Dilution Buffer 2 reagent. The antibody solutions were then diluted 1:1 (vol/vol) with varying concentrations of peptide, or diluent as a no peptide control, for 1 h at RT, and 10 µL of each antibody/peptide solution was added to the designated wells of the separation module sampling plate. Samples were run in duplicates or triplicates. Plates were then processed in the WES instrument using default running and detection parameters.

PAAAPGHPLA [central ten amino acid fragment within the N-terminal 15 amino acids]
inhibition of 17B4 binding by immunogen fragment (ACE): inhibited binding
inhibition of 17B4 binding by immunogen fragment (ACE) (listed as center sub-domain fragment): complete inhibition
